Read-outs that look alike come from different tables or passages of the source.

Results on 28 molecules are retold here after patent US20130324522A1, “INSECT ODORANT RECEPTOR ANTAGONISTS” (THE ROCKEFELLER UNIVERSITY, priority 2010, published 2013).

Type in all cases: cell-based
The target of assay [1] is OR10/OR7 (Anopheles gambiae, UniProt B5U0U7+Q7QCC7). The assay is described as follows: Ca2+-imaging of stable HEK293T cell line OR10/OR7. Particulars: for inhibition at 4 µM: HEK-293T, compound applied at 4 μM, read-out: Percent Inhibition OR10 OR7. The protocol:
Stable cell lines OR1/OR7, OR2/OR7, OR8/OR7, OR10/OR7, OR28/OR7 and TRPM8 were generated from HEK293T cells. HEK293T-based cell lines were cultured in DMEM supplemented with these additional antibiotics: 6 μg/mL blasticidin and 1 μg/mL puromycin, with the exception of the TRPM8 cell lines, which was cultured in DMEM supplemented with 1 μg/mL puromycin.
After one day of incubation, the transfected cells were transferred into 10 cm dishes with DMEM containing antibiotics as follows: • 0.5 μg/mL of blasticidin for OR1/OR7, OR2/OR7, OR8/OR7, OR10/OR7, OR28/OR7 • 0.2 μg/mL of puromycin for TRPM8.
(§1) Stable cell lines were cultured in 10 cm dishes, and confluent cells (70-80%) were trypsinized. 10,000 cells/20 μL were transferred into each well of 384-well plates coated with poly-D-lysine, and cultured for 2 days. For Flip-In T-Rex cells (cell lines expressing Or47a/Or83b and 5HT3), 5 μL of tetracycline (5 μg/mL) were added 1 day before the assay. 20 μL of Ca-4 dye was loaded into each well for 1.5 hr at room temperature in the dark, and the dye-loaded plates were subjected to Ca^2+-imaging using a Hamamatsu FDSS6000 real time fluorescence plate reader. Odorant solutions (9× final concentration) were prepared by dissolving 1M stock solutions into Hank's Buffered Salt Solution (HBSS), and 30 μL of odor solution was transferred to each well in 384-well plates.
(§2) Compounds ([…] in DMSO) were stored in 384-well plates, and last two columns (32 wells total) contained only DMSO. 200 nL of small compounds were transferred into the odorant plates before the assay using the Perkin-Elmer Janus workstation. The odorant plates were spun down to remove air bubbles, and placed on the FDSS6000 plate loader, and 5 μL of odorant solution was applied to the cell plate on the FDSS6000. Ca^2+ increase was monitored with fluorescence at 525 nm by excitation at 485 nm.

The target of assay [2] is T1, serotonin receptor (5HT3) (Mus musculus, UniProt P23979).
T1 construct: Full-length cDNAs for mosquito (Anopheles gambiae) odorant receptor; expressed in transfected cells
T1 sequence (P23979 24-489): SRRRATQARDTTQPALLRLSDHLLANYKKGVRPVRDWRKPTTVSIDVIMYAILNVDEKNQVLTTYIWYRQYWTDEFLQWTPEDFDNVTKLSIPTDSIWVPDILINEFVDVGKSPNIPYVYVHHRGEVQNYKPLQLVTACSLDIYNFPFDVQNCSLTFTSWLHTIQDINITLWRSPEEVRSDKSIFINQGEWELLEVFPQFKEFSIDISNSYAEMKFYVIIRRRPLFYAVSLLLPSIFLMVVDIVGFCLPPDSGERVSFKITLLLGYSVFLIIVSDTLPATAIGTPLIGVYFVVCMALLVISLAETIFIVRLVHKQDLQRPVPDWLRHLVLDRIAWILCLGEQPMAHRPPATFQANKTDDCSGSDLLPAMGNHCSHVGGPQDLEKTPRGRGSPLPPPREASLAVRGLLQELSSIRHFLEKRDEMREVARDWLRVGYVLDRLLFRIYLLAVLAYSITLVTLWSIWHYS
The assay can be described thus: Ca2+-imaging of stable Flip-In T-Rex cell line 5HT3. Particulars: for inhibition at 4 µM: compound applied at 4 μM, read-out: Percent Inhibition 5HT3. The protocol:
Full-length cDNAs for mosquito (Anopheles gambiae) odorant receptor (OR1, OR2, OR7, OR8, OR28), and fly (Drosophila melanogaster) odorant receptor (Or47a, Or83b), mouse TRP channel (TRPM8), and mouse serotonin receptor (5HT3) were obtained and subcloned into mammalian expression vectors. The following mammalian expression vectors were used:
Stable cell lines Or47a/Or83b and 5HT3 were generated from Flip-In T-Rex cells. Flip-In T-Rex-based cell lines were cultured in DMEM supplemented with these additional antibiotics: 6 μg/mL blasticidin and 100 μg/mL hygromycin.
Cells were trypsinized and split into 35 mm dishes 1 day before transfection. Confluent cells (60-70%) in 35 mm dishes were co-transfected with 1 μg of Or47a/Or83b plasmid in pcDNA5/FRT/TO/IRES plus the pOG44 plasmid or 1 μg of 5HT3 plasmid in pcDNA5/FRT/TO plus the pOG44 plasmid using lipofectamine 2000. Co-transfection of pOG44 and pcDNA5/FRT/TO/IRES or pcDNA5/FRT/TO allows expression of Flp recombinase and integration of the pcDNA5 plasmid into the genome via the FRT site. After one day of incubation, the transfected cells were transferred into 10 cm dishes with DMEM containing antibiotics: 20 μg/mL of hygromycin and 6 μg/mL of blasticidin. The concentration of Hygromycin was increased to 100 μg/mL when the population of cells became 30-40% confluent. The cells were cultured by changing medium every two days until cell clumps appeared. The clumps were picked and transferred into 96 well plates with DMEM containing 100 μg/mL of Hygromycin and 6 μg/mL of blasticidin. The cells were grown and transferred to 24 well plates, and ligand-evoked calcium increases were tested using the Hamamatsu FDSS6000 real time fluorescence plate reader.
as §1, §2

Assay [3] deals with T2, mOREG (Mus musculus, UniProt Q920P2).
T2 sequence (Q920P2 1-313): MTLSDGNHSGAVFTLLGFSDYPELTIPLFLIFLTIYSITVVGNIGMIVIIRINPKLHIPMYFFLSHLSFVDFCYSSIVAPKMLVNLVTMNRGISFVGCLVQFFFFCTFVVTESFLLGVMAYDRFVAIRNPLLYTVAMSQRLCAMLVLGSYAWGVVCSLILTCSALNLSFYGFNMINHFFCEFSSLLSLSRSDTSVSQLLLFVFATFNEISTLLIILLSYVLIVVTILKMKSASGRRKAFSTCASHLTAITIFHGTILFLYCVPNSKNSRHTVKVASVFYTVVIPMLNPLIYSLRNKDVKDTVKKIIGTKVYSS
The assay is described as follows: Ca2+-imaging, control receptor mOREG. Conditions: compound applied at 4 μM; read-out: Percent Inhibition mOREG. The protocol:
as §1, with “plates. The last two columns of the plate (32 wells total) were used as control wells as follows: • negative control with HBSS buffer (16 wells) • positive control with ligands (16 wells).” for “plates.”
as §2

[4] abbreviates: ligand serotonin 10 μM, read-out: IC50 5HT3.
Where [5] appears, read: ligand indole 30 μM, read-out: IC50 OR10 OR7.

Sequence of OR10/OR7 (Q7QCC7 whole entry): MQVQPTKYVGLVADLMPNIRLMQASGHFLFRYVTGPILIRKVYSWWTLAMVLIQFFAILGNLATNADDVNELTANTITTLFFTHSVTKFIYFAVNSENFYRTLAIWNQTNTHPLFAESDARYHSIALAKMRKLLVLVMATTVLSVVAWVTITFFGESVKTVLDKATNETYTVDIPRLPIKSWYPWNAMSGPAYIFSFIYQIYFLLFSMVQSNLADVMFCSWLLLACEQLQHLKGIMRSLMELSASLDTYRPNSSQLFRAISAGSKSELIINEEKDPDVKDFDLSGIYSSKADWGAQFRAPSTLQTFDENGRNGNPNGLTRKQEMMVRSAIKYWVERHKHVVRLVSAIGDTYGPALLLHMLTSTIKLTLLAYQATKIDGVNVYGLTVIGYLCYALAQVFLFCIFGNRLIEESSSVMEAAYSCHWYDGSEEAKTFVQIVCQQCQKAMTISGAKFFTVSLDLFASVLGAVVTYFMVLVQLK
Sequence of OR10/OR7 (B5U0U7 entry or part of it): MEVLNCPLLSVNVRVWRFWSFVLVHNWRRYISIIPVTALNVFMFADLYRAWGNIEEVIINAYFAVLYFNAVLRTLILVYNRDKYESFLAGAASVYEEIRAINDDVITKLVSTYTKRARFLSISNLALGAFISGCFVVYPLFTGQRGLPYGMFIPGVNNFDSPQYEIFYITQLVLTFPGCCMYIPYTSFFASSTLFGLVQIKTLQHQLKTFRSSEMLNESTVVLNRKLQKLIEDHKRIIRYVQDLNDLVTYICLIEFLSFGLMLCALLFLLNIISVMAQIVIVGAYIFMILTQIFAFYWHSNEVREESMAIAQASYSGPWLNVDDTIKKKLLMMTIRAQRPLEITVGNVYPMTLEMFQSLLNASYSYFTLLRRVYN

Usually IC50 stands for the point on the concentration scale where inhibition reaches its midpoint. Turning to `CC(C)Nc1nc(NC(C)C)nc(C(F)(F)F)n1` [RU-T8], the IC50 in assay [1] and in assay [2] was above 20 µM throughout.
The inhibition is how much of the control response was suppressed. As for `CCN(C)c1onc(-c2ccccc2)c1CN(CCCOC)C(=O)c1ccco1` [RU-0051926], the inhibition at 4 µM in assay [1] was 26 to 50%; in assay [3], below 25%; in assay [2] it was 51 to 74%. Moreover, the IC50 in assay [2] (Table B, read-out: IC50 5HT3) fell in the range of 0.1 to 1 µM.
Take `CC(C)CN(Cc1nccn1Cc1c(F)cccc1Cl)C(=O)c1ccc(F)cc1` [RU-0048054]: the inhibition at 4 µM in assay [1] was 51 to 74%; in assay [3] it was below 25%; in assay [2], below 25%. Further, in assay [1] (Table B, read-out: IC50 OR10), the IC50 is below 0.1 µM.
Consider `O=C(c1ccco1)N(Cc1ccco1)Cc1nccn1Cc1ccccc1F` [RU-0047694], for which the inhibition at 4 µM in assay [1] is 51 to 74%; in assay [3], below 25%; in assay [2], 26 to 50%. Moreover, the IC50 in assay [1] (Table B, read-out: IC50 OR10) was below 0.1 µM.
Turning to `CC(C)CN(Cc1nccn1Cc1ccc(Cl)cc1Cl)C(=O)c1ccccc1F` [RU-0055322], the inhibition at 4 µM in assay [1] is 51 to 74%; in assay [3] it was 26 to 50%; in assay [2], below 25%. Also, the IC50 in assay [1] (Table B, read-out: IC50 OR10) is below 0.1 µM.
For `CC(=O)OCC(=O)NCC1Cc2cc(Oc3ccccc3)ccc2O1` (stereo not drawn) [RU-0079120], the values for the inhibition at 4 µM in assay [1], in assay [3] and in assay [2] were above 75%, below 25% and 26 to 50%, respectively. The IC50 in assay [1] (Table B, read-out: IC50 OR10) is below 0.1 µM.
For `CC(C)Nc1nc(Cl)nc(NC(C)C)n1` [RU-T1], the IC50 in assay [1] and in assay [2] (setting [4]) was above 20 µM throughout.
For the molecule `CCCCCCCC(=O)N1CCCC(C(=O)NC2CCCC[C@H]2NC(=O)c2ccccc2C)C1` (stereo partly drawn) [RU-0045756], the figures for the inhibition at 4 µM in assay [1], in assay [3] and in assay [2] were below 25%, 26 to 50% and below 25%, respectively.
On to `O=C(c1c(F)c(F)cc(F)c1F)N1CCOC(Cc2ccccc2)C1` (stereo not drawn) [RU-0050393], for which the figures for the inhibition at 4 µM in assay [1], in assay [3] and in assay [2] were 51 to 74%, 26 to 50% and 26 to 50%, respectively. The IC50 in assay [1] (Table B, read-out: IC50 OR10) is above 1 µM.
As for `COCCN(Cc1c(-c2ccccc2)noc1N(C)C1CCCCC1)C(=O)c1ccccc1OC` [RU-0037275], the inhibition at 4 µM in assay [1] was below 25%; in assay [3] it was 26 to 50%; in assay [2], 26 to 50%.
Regarding `C=CCN(Cc1nccn1Cc1ccccc1F)C(=O)C1CCCC1` [RU-0058964], the inhibition at 4 µM in assay [1] was above 75%; in assay [3], 26 to 50%; in assay [2], 51 to 74%. The concentration for half-maximal inhibition (IC50) in assay [1] (Table B, read-out: IC50 OR10) was below 0.1 µM; in assay [2] (Table B, read-out: IC50 5HT3) it was above 1 µM.
As to `COc1ccc(OCC(=O)N2CCOC(Cc3ccccc3)C2)cc1` (stereo not drawn) [RU-0050384], the inhibition at 4 µM in assay [1], in assay [3] and in assay [2] was below 25% each time.
As to `Cc1c(C(=O)NCc2ccco2)cnn1-c1ccccc1` [RU-0047765], the inhibition at 4 µM in assay [1] is 51 to 74%; in assay [3] it was below 25%; in assay [2], below 25%. Further, the IC50 in assay [1] (Table B, read-out: IC50 OR10) is below 0.1 µM.
As to `O=C(NCCC(=O)N1CCOC(COCc2ccc(F)cc2Cl)C1)OCc1ccccc1` (stereo not drawn) [RU-0050344], the inhibition at 4 µM was 26 to 50% in assay [1], 26 to 50% in assay [3] and below 25% in assay [2].
Take `CN(C)c1ccc(C(=O)N2CCOC(COCc3ccccc3F)C2)cc1` (stereo not drawn) [RU-0050325]: the inhibition at 4 µM in assay [1], in assay [3] and in assay [2] was below 25% in each case.
As for `Fc1cccc(Cl)c1Cn1ccnc1CN(CC1CCCC1)C1CC1` [RU-I4], the IC50 in assay [1] (setting [5]) and in assay [2] (setting [4]) was above 20 µM in each case.
On to `Cc1nc(NC(C)C)nc(NC(C)C)n1` [RU-T6], for which the IC50 in assay [1] and in assay [2] was above 20 µM in each case.
Consider `CSc1nc(NC(C)C)nc(NC(C)C)n1` [RU-T2], for which the IC50 in assay [1] and in assay [2] (setting [4]) was 2 to 20 µM throughout.
`CN(Cc1nccn1Cc1c(F)cccc1Cl)C(=O)C1CCCC1` [RU-I5]: the IC50 in assay [1] (setting [5]) is above 20 µM; in assay [2] (setting [4]) it was 2 to 20 µM.
For `CCNc1nc(NCC)nc(SC)n1` [RU-T4], the IC50 in assay [1] and in assay [2] (setting [4]) was 20 to 50 µM throughout.
For the molecule `CCNc1nc(Cl)nc(NC(C)C)n1` [RU-T5], the IC50 was 2 to 20 µM in assay [1] and above 20 µM in assay [2] (setting [4]).
For the molecule `C=CCN(Cc1nccn1Cc1cccc(F)c1)C(=O)c1ccccc1F` [RU-I1], the IC50 in assay [1] (setting [5]) fell in the range of 2 to 20 µM; in assay [2] (setting [4]) it was 20 to 50 µM.
In the case of `CC(C)Nc1nc(Cl)nc(N(C)C(C)C)n1` [RU-T7], the IC50 in assay [1] and in assay [2] was above 20 µM in each case.
In the case of `O=C(c1nccn1Cc1c(F)cccc1Cl)N(CC1CCCC1)C1CC1` [RU-I3], the IC50 in assay [1] (setting [5]) and in assay [2] (setting [4]) was 2 to 20 µM each time.
As for `CCN(CC)C(=O)c1cccc(C)c1` [DEET, N,N-diethyl-m-toluamide, reference compound], the IC50 in assay [1] (setting [5]) and in assay [2] (setting [4]) was above 50 µM each time.
On to `O=C(C1CCCC1)N(Cc1nccn1CCc1c(F)cccc1Cl)C1CC1` [RU-I2], for which the IC50 in assay [1] (setting [5]) and in assay [2] (setting [4]) was 2 to 20 µM each time.
As for `CC(C)Nc1nc(Cl)nc(NCc2ccccc2)n1` [RU-T9], the IC50 is above 20 µM in assay [1] and above 50 µM in assay [2].
Turning to `CCNc1nc(NC(C)C)nc(SC)n1` [RU-T3], the IC50 is 2 to 20 µM in assay [1] and 20 to 50 µM in assay [2] (setting [4]).
